# Measured values reported in patent publication US20090238799A1, “Conditionally-Immortalised Pancreatic Cells” (priority 2005, published 2009).
# Tests used:
# [1] = test system: Telomerase Reverse Transcriptase; test: Quantitative PCR of c-myc gene target induction in c-mycERTAM pancreatic cells; type: cell-based, human; conditions: pancreatic cells with c-mycERTAM, FIG. 4
# Experimental: For the PCR of the c-myc-ER and insulin, the titanium taq PCR kit (Clontech laboratories) was used, see Table 2 for the primers used. The PCR reaction conditions were standard. The PCR machine used was GeneAmp PCR system 2700. For analysis, 15 μl of the PCR product was mixed with 5 μl 6× loading dye solution (MBI R0611) and loaded to a gel. A 100 bp DNA ladder (MBI SM0241), 6 μl, containing 3 μg DNA was also loaded. The gel was a 2% agarose gel consisting of: TAE buffer (Invitrogen 15558-034), agarose 2%, ethidium bromide, 267 μg/ml. The gel was run with an electrophoresis power supply E835 (Consort) in a tray HU13 (Jencons) and finally scanned with Fluor-S multimager (Biorad) and analysed with the software Quantity One (Biorad). For quantitative PCR, total RNA is extracted from cell pellets using Trizol (Invitrogen) and RNeasy (Qiagen) spin-columns, prior to reverse-transcription with Superscript II (Invitrogen) to synthesize the first strand of cDNA, which can be used as a template in quantitative PCR. Each gene transcript is detected with a sequence-specific primer-probe combination which accumulates a fluorescent signal during each PCR cycle, detected using a Lightcycler 480 instrument (Roche); the transcription of each gene is normalized against loading-level by assessing a number of house-keeping genes, and expressed as a proportion of a calibrator sample.
# [2] = test system: cells containing the cmyERTam construct; test: Proliferation of cells containing the cmyERTam construct; type: cell-based, human; conditions: removal promotes differentiation
# Experimental: Before use, the following growth factors (GF) were added to HPM: 20 ng/ml epidermal growth factor (EGF) and 50 nM Gastrin I. After infection the pancreas cells were cultured in the presence of a supplement: 100 nM 4-Hydroxytamoxifen (4OHT).
# Pancreas cells or preselected pancreas cell aggregates were transferred on fibronectin coated or uncoated vessels. Pancreatic cells were infected with virus supernatant and 4-8 μg/ml hexadimethrine bromide. After 8-16 hours of infection, fresh HPM was added and the infection cycle was repeated the next day. The infection was done in 10 cm Petri dishes with cell confluency ranging from 40% to 70%. After infection 4OHT was added to the medium. After 2 days from completed infection the cells were passaged for expansion and/or selection.
substance,measurement,setting,value
4-hydroxytamoxifen [4-OHT],Telomerase Reverse Transcriptase (hTERT) induction,[1],induction
same,effect of addition on proliferation,[2],promotes proliferation
